Patent publication US20240309090A1, “MODULATION OF ANDROGEN SIGNALING TO INNATE IMMUNE KILLING OF PROSTATE CANCER” (Brown University, priority 2023, published 2024)

Key:
Format in all cases: cell-based
LNCaP = test: Co-culture of LNCaP with NK-92 cells, immune-mediated tumor cell killing
Description: (§1) They were co-treated with enzalutamide ([…]) or darolutamide (20 μM) for 48 h. Doses of AR inhibitors (ARi) used in the co-culture experiments were based on previous IC50 experiments. […] The immune-mediated effect of NK-92 on the PCa cell lines in the presence of enzalutamide (immune enhancement death) was normalized to baseline immune and tumor cell killing in each condition [(tumor cells+immune cells)-tumor baseline death=baseline immune death]. […] Cytokine analysis was performed to investigate the activation phenotype of NK cells when treated with ARi.
(§2) Prostate cancer cell lines were dyed with the blue CMAC live-cell dye (Thermo Fisher Scientific #C2110, per manufacturer protocol). Blue-fluorescent cancer cells were plated at a density of 10,000 cells per well of a 48-well plate. NK-92 cells were dyed with green CMFDA (Cayman Chemical Company #19583, per manufacturer protocol). Green-fluorescent NK-92 cells were added to the blue-fluorescent cancer cells at a 1:1 ratio. Enzalutamide (10 μM), darolutamide (20 μM), and 1 μM ethidium homodimer (EthD-1) were added at the same time as the NK cells. After 24 hours of co-culture, images of live cancer cells, live NK cells, and dead cells were taken using a fluorescent microscope. The co-culture experiments were run with internal control conditions and as a single treatment. Normalization was performed after analysis to take baseline death conditions into each experiment run. […] Cell adhered over 24 h, and when patient-derived NK cells were added, a control well was trypsinized, and cells resuspended and counted to adjust a 1:1 ratio before treatment addition. […]
(§3) Live cancer cells, NK cells, and dead cells were quantified using FIJI (Fiji Is Just ImageJ) software for images derived from fluorescent co-culture images. Images from the ImageXpress system were quantified using MetaXpress cytoplasmic/nuclear staining software. The percent of dead tumor cells in each well was quantified, and this percentage was normalized by subtracting baseline death from cancer cell-only wells, NK cell-only wells, or both.

22Rv1 = test: Co-culture of 22Rv1 with NK-92 cells, immune-mediated tumor cell killing
Description: as §1, §2, §3

[1] = test system: AR-transduced PC3-AR and DU145 cell lines; test: Flow cytometry of HLA-E surface expression on AR-transduced PC3 and DU145
Text: (§4) To evaluate the modulation of the androgen receptor and tumor HLA-E expression, we astably transduced AR negative cell lines PC3 and DU145 with an Androgen Response Element (ARE) GFP reporter (FIG. 16H). […] Using AR+ constructed cell lines, PC3 and DU145, we sought to determine the dependence of HLA-E expression and possible modulation by AR. […] Although potential therapies targeting immune enhancement are being explored, the expression of exhaustion markers such as PD-1, NKG2A, and potential engaging ligands that diminish their cytotoxic function limits their application. Exploring these factors with new combination approaches, such as ARi and anti-NKG2A, and understanding the modulation of its targets upon treatment is key in overcoming immune-resistant scenarios, especially in prostate cancer.
(§5) PCa cells were plated at a density of 3×10^5 cells per well of a 6-well plate and adhered overnight. […] After treatment, cells were trypsinized, stained, and incubated (Cell Staining Buffer SouthernBiotech #0225-01S) with the corresponding antibody for 45-60 min at 4° C. Viability dye was added with each run. NK-92 cells and patient-derived cells were stained similarly. […]

PC3 cell line = test: Flow cytometry of HLA-E surface expression on AR-negative PC3; details: non-AR-transduced PC3
Text: as §4
Experiments were conducted with noncytotoxic doses of vorinostat (0.3 μM) and panobinostat (3 nM).
PCa cells were plated at a density of 3×10^5 cells per well of a 6-well plate and adhered overnight. […] After treatment, cells were trypsinized, stained, and incubated (Cell Staining Buffer SouthernBiotech #0225-01S) with the corresponding antibody for 45-60 min at 4° C. Viability dye was added with each run. NK-92 cells and patient-derived cells were stained similarly. Markers used for experiments included: Thermofisher HLA-E Monoclonal Antibody (3D12HLA-E), Alexa Fluor™ 488, eBioscience™, CD274 (PD-L1, B7-H1) Monoclonal Antibody (MIH1), eFluor™ 450, eBioscience™, Cell Signaling PD-1 (D4W2J) XPR Rabbit mAb, SYTOX™ Orange Dead Cell Stain, for flow cytometry, BioLegend APC anti-human CD159a (NKG2A) Antibody #375108, BioLegend APC anti-human CD69 Antibody #310909, BioLegend Alexa Fluor® 647 anti-human CD137 (4-1BB) [4B4-1] #309823. For staining of the patient-derived PBMCs and subsequent NK cell characterization, the following antibodies were used: BioLegend Anti-Perforin Mouse Monoclonal Antibody (PerCP Cy5.50, clone: dG9) #308113, BioLegend Anti-Granzyme B Mouse Monoclonal Antibody (FITC, clone: GB11) #515403, BioLegend Anti-CD56 Mouse Monoclonal Antibody (Alexa Fluor® 700, clone: 5.1H1) #362521, and BioLegend (PE anti-human CD45 Antibody) #304008.

DU145 = test: Flow cytometry of HLA-E surface expression on non-AR-transduced DU145
Text: as §4, §5

Compound	cell death rate (NK cell-mediated tumor killing) (LNCaP; LNCaP + NK-92 1:1, 24 hours) [%]	NK cell killing of PCa cells (immune enhancement) (LNCaP; LNCaP + NK-92 1:1, enzalutamide 10 μM, FIG. 15A) [%]	cell death rate (NK cell-mediated tumor killing) (22Rv1; 22Rv1 + NK-92 1:1, 24 hours) [%]	NK cell killing of PCa cells (immune enhancement) (22Rv1; 22Rv1 + NK-92 1:1, enzalutamide 10 μM, FIG. 15B) [%]	HLA-E surface expression upon ARi ([1]; AR-responsive PC3-AR)	HLA-E surface expression upon ARi ([1]; AR-transduced (AR-responsive) DU145)	HLA-E expression (PC3 cell line) [%]	HLA-E expression (DU145) [%]
CNC(=O)c1ccc(N2C(=S)N(c3ccc(C#N)c(C(F)(F)F)c3)C(=O)C2(C)C)cc1F [enzalutamide]	48.3	35.32	52.67±8.96	34.84				
CC(O)c1cc(C(=O)N[C@@H](C)Cn2ccc(-c3ccc(C#N)c(Cl)c3)n2)n[nH]1 (some centres unmarked) [darolutamide]					increased	increased	15.47	1.23
